For orientation: IC50 means the concentration at which inhibition is half-maximal.

In the test the target is T1, Follicle Stimulating Hormone Receptor (FSHR) (Homo sapiens, UniProt P23945).
T1 construct: HA (N); expressed in transfected cells; host or cells: CHO-K1, transient transfection, pHM6 vector (CMV promoter)
T1 sequence (P23945 18-695): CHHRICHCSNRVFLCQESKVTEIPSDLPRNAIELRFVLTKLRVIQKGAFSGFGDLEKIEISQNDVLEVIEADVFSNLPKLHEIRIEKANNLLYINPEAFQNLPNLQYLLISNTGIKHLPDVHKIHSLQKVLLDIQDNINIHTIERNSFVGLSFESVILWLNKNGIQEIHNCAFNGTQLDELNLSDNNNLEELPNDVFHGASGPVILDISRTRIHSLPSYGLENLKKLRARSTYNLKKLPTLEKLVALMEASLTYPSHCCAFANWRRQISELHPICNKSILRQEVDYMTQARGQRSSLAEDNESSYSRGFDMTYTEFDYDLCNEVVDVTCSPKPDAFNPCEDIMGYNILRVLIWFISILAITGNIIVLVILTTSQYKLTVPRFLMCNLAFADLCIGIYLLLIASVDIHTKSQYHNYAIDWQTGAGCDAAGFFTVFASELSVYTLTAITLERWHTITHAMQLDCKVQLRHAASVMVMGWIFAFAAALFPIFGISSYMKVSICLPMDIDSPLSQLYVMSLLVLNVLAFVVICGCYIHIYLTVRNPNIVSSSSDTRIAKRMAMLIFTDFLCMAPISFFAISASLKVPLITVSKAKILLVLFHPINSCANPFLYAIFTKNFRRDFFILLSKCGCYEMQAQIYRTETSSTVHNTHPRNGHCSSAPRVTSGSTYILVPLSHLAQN
Description: HTRF cAMP agonist assay, FSHR, transiently transfected CHO-K1 cells. In kind it is cell-based. As to conditions: CHO-K1 cells transiently expressing human FSHR, read-out: IC50 FSHR LANCE CAMP. (In general: TR-FRET usually uses a lanthanide donor and a delayed reading to cut background.)
As for `COc1cc(C(N)=O)cc(-c2cc3c(cc2OC)COc2c(C(=O)N(C)C(C)(C)C)nn(-c4cc(Cl)cc(Cl)c4)c2-3)n1` [Compound 11-02, N-tert-butyl-8-(4-carbamoyl-6-methoxy-2-pyridyl)-1-(3,5-dichlorophenyl)-7-methoxy-N-methyl-5H-isochromeno[4,3-c]pyrazole-3-carboxamide], the IC50 came to 42 nM.
The result for `COc1cc(C(N)=O)cc(-c2cc3c(cc2OC)CSc2c(C(=O)N(C)C(C)(C)C)nn(-c4cc(Cl)cc(Cl)c4)c2-3)n1` [Compound 11-03, N-tert-butyl-8-(4-carbamoyl-6-methoxy-2-pyridyl)-1-(3,5-dichlorophenyl)-7-methoxy-N-methyl-5H-isothiochromeno[4,3-c]pyrazole-3-carboxamide] reads 75 nM; that for `COc1cc2c(cc1-c1cncc(C(N)=O)c1)-c1c(c(C(=O)N3[C@H](C)CN(C)C[C@@H]3C)nn1-c1cc(Cl)cc(Cl)c1)CC2` [Compound 12-01], 14.8 nM.
The result for `COc1cc2c(cc1-c1cncc(C(N)=O)c1)-c1c(c(C(=O)N3[C@H](C)CNC[C@@H]3C)nn1-c1cc(Cl)cc(Cl)c1)OC2` [Compound 12-02, 5-[1-(3,5-dichlorophenyl)-3-[(2R,6S)-2,6-dimethylpiperazine-1-carbonyl]-7-methoxy-5H-isochromeno[4,3-c]pyrazol-8-yl]pyridine-3-carboxamide] reads 5.07 nM; that for `COc1cc2c(cc1-c1cncc(C(N)=O)c1)-c1c(c(C(=O)N3COCC3(C)C)nn1-c1cc(Cl)cc(Cl)c1)OC2` [Compound 12-04], 5.09 nM.
The result for `COc1cc2c(cc1-c1cncc(C(N)=O)c1)-c1c(c(C(=O)N3[C@H](C)CNC[C@@H]3C)nn1-c1cc(Cl)cc(Cl)c1)S(=O)(=O)C2` [Compound 12-05] reads 15.4 nM; that for `COc1cc2c(cc1-c1cncc(C(N)=O)c1)-c1c(c(C(=O)N3COCC3(C)C)nn1-c1cc(Cl)cc(Cl)c1)S(=O)(=O)C2` [Compound 12-07], 21.2 nM; that for `COc1cc2c(cc1-c1cncc(C(N)=O)c1)-c1c(c(C(=O)N3COCC3(C)C)nn1-c1cc(Cl)cc(Cl)c1)CCO2` [Compound 12-11], 26.6 nM.
With `COc1cc2c(cc1-c1cncc(C(N)=O)c1)-c1c(c(C(=O)N3CCNC(=O)C3(C)C)nn1-c1cc(Cl)cc(Cl)c1)S(=O)(=O)C2` [Compound 12-12], the IC50 is 228 nM.
The result for `COc1cc2c(cc1-c1cncc(C(N)=O)c1)-c1c(c(C(=O)N3[C@H](C)CNC[C@@H]3C)nn1-c1cc(Cl)cc(Cl)c1)SC2` [Compound 12-13] reads 4.98 nM; that for `COc1cc2c(cc1-c1cncc(C(N)=O)c1)-c1c(c(C(=O)N3COCC3(C)C)nn1-c1cc(Cl)cc(Cl)c1)SC2` [Compound 12-15], 3.09 nM.
The result for `COc1cc2c(cc1-c1cncc(C(N)=O)c1)-c1c(c(C(=O)N3CCNC(=O)C3(C)C)nn1-c1cc(Cl)cc(Cl)c1)SC2` [Compound 12-16] reads 20.9 nM; that for `COc1cc2c(cc1-c1cncc(C(N)=O)c1)-c1c(c(C(=O)N3CCNC(=O)C3(C)C)nn1-c1cc(Cl)cc(Cl)c1)OC2` [Compound 12-18], 66.8 nM; that for `COc1cc2c(cc1-c1cncc(C(N)=O)c1)-c1c(c(C(=O)N3CCNC(=O)C3(C)C)nn1-c1ccsc1)CC2` [Compound 12-23, 5-[3-(2,2-dimethyl-3-oxo-piperazine-1-carbonyl)-7-methoxy-1-(3-thienyl)-4,5-dihydrobenzo[g]indazol-8-yl]pyridine-3-carboxamide], 36.7 nM.
Consider `CC1(C)C(=O)NCCN1C(=O)c1nn(-c2ccccn2)c2c1CCc1ccc(-c3cccnc3)cc1-2` [Compound 13-01, 3,3-dimethyl-4-[1-(2-pyridyl)-8-(3-pyridyl)-4,5-dihydrobenzo[g]indazole-3-carbonyl]piperazin-2-one], for which the IC50 amounted to 6740 nM.
For `COc1cc2c(cc1-c1cncc(C(N)=O)c1)-c1c(c(C(=O)N3CCNC(=O)C3(C)C)nn1CC(C)C)CC2` [Compound 13-09, 5-[3-(2,2-dimethyl-3-oxo-piperazine-1-carbonyl)-1-isobutyl-7-methoxy-4,5-dihydrobenzo[g]indazol-8-yl]pyridine-3-carboxamide] the value was 2130 nM; for `COc1cc2c(cc1-c1cncc(C(N)=O)c1)-c1c(c(C(=O)N3CCNC(=O)C3(C)C)nn1CC(C)C)CC2` [Compound 14-03], 13800 nM; for `COc1cc2c(cc1-c1cncc(C(N)=O)c1)-c1c(c(C(=O)N3CCNC(=O)C3(C)C)nn1-c1ccccn1)CC2` [Compound 15-01, 5-[3-(2,2-dimethyl-3-oxo-piperazine-1-carbonyl)-7-methoxy-1-(2-pyridyl)-4,5-dihydrobenzo[g]indazol-8-yl]pyridine-3-carboxamide], 75.8 nM.
The result for `COc1cc2c(cc1-c1cccnc1)-c1c(c(C(=O)N3CCNC(=O)C3(C)C)nn1-c1ccccn1)CC2` [Compound 15-02] reads 477 nM; that for `COc1cc2c(cc1-c1cccnc1)-c1c(c(C(=O)N3CCNC(=O)C3(C)C)nn1-c1cc(Cl)cc(Cl)c1)CC2` [Compound 15-03, 4-[1-(3,5-dichlorophenyl)-7-methoxy-8-(3-pyridyl)-4,5-dihydrobenzo[g]indazole-3-carbonyl]-3,3-dimethyl-piperazin-2-one], 31.1 nM.
In the case of `CC1(C)C(=O)NCCN1C(=O)c1nn(-c2cc(Cl)cc(Cl)c2)c2c1CCc1ccc(-c3cncc(C(N)=O)c3)cc1-2` [Compound 15-04, 5-[1-(3,5-dichlorophenyl)-3-(2,2-dimethyl-3-oxo-piperazine-1-carbonyl)-4,5-dihydrobenzo[g]indazol-8-yl]pyridine-3-carboxamide], the IC50 stood at 381 nM.
The result for `COc1cc2c(cc1-c1cncc(C(N)=O)c1)-c1c(c(C(=O)N3CCNC(=O)C3(C)C)nn1-c1ccncn1)CC2` [Compound 15-05, 5-(3-(2,2-dimethyl-3-oxopiperazine-1-carbonyl)-7-methoxy-1-(pyrimidin-4-yl)-4,5-dihydro-1H-benzo[g]indazol-8-yl)nicotinamide] reads 363 nM; that for `COc1cc2c(cc1-c1cncc(C(N)=O)c1)-c1c(c(C(=O)N3CCNC(=O)C3(C)C)nn1-c1cccnn1)CC2` [Compound 15-06], 3620 nM.
The result for `COc1cc2c(cc1-c1cccnc1)-c1c(c(C(=O)N3CCOCC3(C)C)nn1-c1cc(F)cc(F)c1)CO2` [Compound 15-08] reads 7.32 nM; that for `COc1cc2c(cc1-c1ccncc1)-c1c(c(C(=O)N3CCOCC3(C)C)nn1-c1cc(F)cc(F)c1)CC2` [Compound 15-09, [1-(3,5-difluorophenyl)-7-methoxy-8-(4-pyridyl)-4,5-dihydrobenzo[g]indazol-3-yl]-(3,3-dimethylmorpholin-4-yl)methanone], 370 nM.
With `COc1cc2c(cc1-c1ccc(=N)[nH]c1)-c1c(c(C(=O)N3CCOCC3(C)C)nn1-c1cc(F)cc(F)c1)CC2` [Compound 15-10], the IC50 was found to be 21.1 nM.
